Measured values as given in US20240239755A1, “SUBSTITUTED PYRIDAZINONES, SALTS OR N-OXIDES THEREOF AND THEIR USE AS HERBICIDALLY ACTIVE SUBSTANCES” (Bayer Aktiengesellschaft, priority 2021, published 2024).

How the values were obtained:
Assay type in all cases: in vivo
Stellaria media (STEME) [1] = test: Herbicidal post-emergence action, 1280 g/ha (Table B9); details: visual assessment after ca. 3 weeks vs untreated controls
Source text: (§1) Seeds of mono- and dicotyledonous weed plants were sown in plastic pots (double sowings with one species of mono- and one species of dicotyledonous weed plants per pot), in sandy loam, covered with soil and grown under controlled growth conditions. 2 to 3 weeks after sowing, the test plants were sprayed in the single-leaf stage. The compounds according to the invention, formulated in the form of wettable powders (WP) or as emulsifiable concentrates (EC), were sprayed onto the green plant parts as an aqueous suspension or as an emulsion, with the addition of 0.5% of an additive, at an application rate of 600 litres of water per hectare (converted). The test plants were placed in the greenhouse for ca. 3 weeks under optimum growth conditions, and then the effect of the preparations was assessed visually in comparison with untreated controls (herbicidal effect in percent (%): 100% effect=plants have died, 0% effect=as control plants). Tables B1 to B11 below, show the effects of selected compounds of the general formula (I) according to Table 1 on various harmful plants using an application rate corresponding to 1280 g/ha obtained by the experimental procedure mentioned above.

Lolium rigidum (LOLRI) [2] = test: Herbicidal post-emergence action, 1280 g/ha (Table B5); details: visual assessment after ca. 3 weeks vs untreated controls
Source text: as §1

[3] = tested on: Amaranthus retroflexus (AMARE); test: Herbicidal post-emergence action, 320 g/ha, AMARE; details: visual grading after ca. 3 weeks
Source text: as §1, with “plants).” for “plants). Tables B1 to B11 below, show the effects of selected compounds of the general formula (I) according to Table 1 on various harmful plants using an application rate corresponding to 1280 g/ha obtained by the experimental procedure mentioned above.”
(§2) Tables D1 to D8 below, show the effects of selected compounds of the general formula (I) according to Table 1 on various harmful plants using an application rate corresponding to 320 g/ha obtained by the experimental procedure mentioned above.

[4] = tested on: Matricaria inodora (MATIN); test: Herbicidal post-emergence action, 1280 g/ha (Table B6); details: visual assessment after ca. 3 weeks vs untreated controls
Source text: as §1

Kochia scoparia (KCHSC) [5] = test: Herbicidal post-emergence action, 1280 g/ha (Table B4); details: visual assessment after ca. 3 weeks vs untreated controls
Source text: as §1

[6] = tested on: Amaranthus retroflexus (AMARE); test: Herbicidal post-emergence action, 1280 g/ha, AMARE; details: visual grading vs untreated controls
Source text: as §1, with “plants).” for “plants). Tables B1 to B11 below, show the effects of selected compounds of the general formula (I) according to Table 1 on various harmful plants using an application rate corresponding to 1280 g/ha obtained by the experimental procedure mentioned above.”
(§3) Tables B1 to B11 below, show the effects of selected compounds of the general formula (I) according to Table 1 on various harmful plants using an application rate corresponding to 1280 g/ha obtained by the experimental procedure mentioned above.

Veronica persica (VERPE) [7] = test: Herbicidal post-emergence action, 1280 g/ha, VERPE; details: visual grading vs untreated controls
Source text: as §1, with “plants).” for “plants). Tables B1 to B11 below, show the effects of selected compounds of the general formula (I) according to Table 1 on various harmful plants using an application rate corresponding to 1280 g/ha obtained by the experimental procedure mentioned above.”
as §3

Poa annua (POAAN) = test: Herbicidal pre-emergence action, 1280 g/ha (Table A7); details: visual grading after ca. 3 weeks vs untreated controls
Source text: (§4) Seeds of mono- and dicotyledonous weed plants were sown in plastic pots (double sowings with one species of mono- and one species of dicotyledonous weed plants per pot), in sandy loam, and covered with soil. The compounds according to the invention, formulated in the form of wettable powders (WP) or as emulsifiable concentrates (EC), were applied to the surface of the covering soil as an aqueous suspension or as an emulsion, with the addition of 0.5% of an additive, at an application rate of 600 litres of water per hectare (converted). Following treatment, the pots were placed in a greenhouse and kept under optimum growth conditions for the test plants. The visual grading of the damage to the test plants was carried out after ca. 3 weeks in comparison to untreated controls (herbicidal effect in percent (%): 100% effect=plants have died, 0% effect=as control plants). Tables A1 to A11 below, show the effects of selected compounds of the general formula (I) according to Table 1 on various harmful plants and an application rate corresponding to 1280 g/ha obtained by the experimental procedure mentioned above.

Stellaria media (STEME) [8] = test: Herbicidal pre-emergence action, 1280 g/ha (Table A9); details: visual grading after ca. 3 weeks vs untreated controls
Source text: as §4

Lolium rigidum (LOLRI) [9] = test: Herbicidal pre-emergence action, 1280 g/ha (Table A5); details: visual grading after ca. 3 weeks vs untreated controls
Source text: as §4

Veronica persica (VERPE) [10] = test: Herbicidal post-emergence action, 320 g/ha, VERPE; details: visual grading after ca. 3 weeks
Source text: as §1, with “plants).” for “plants). Tables B1 to B11 below, show the effects of selected compounds of the general formula (I) according to Table 1 on various harmful plants using an application rate corresponding to 1280 g/ha obtained by the experimental procedure mentioned above.”
as §2

[11] = tested on: Abutilon theophrasti (ABUTH); test: Herbicidal post-emergence action, 1280 g/ha (Table B1); details: visual assessment after ca. 3 weeks vs untreated controls
Source text: as §1

[12] = tested on: Abutilon theophrasti (ABUTH); test: Herbicidal post-emergence action, 320 g/ha, ABUTH; details: visual grading after ca. 3 weeks
Source text: as §1, with “plants).” for “plants). Tables B1 to B11 below, show the effects of selected compounds of the general formula (I) according to Table 1 on various harmful plants using an application rate corresponding to 1280 g/ha obtained by the experimental procedure mentioned above.”
as §2

Kochia scoparia (KCHSC) [13] = test: Herbicidal post-emergence action, 320 g/ha, KCHSC; details: visual grading after ca. 3 weeks
Source text: as §1, with “plants).” for “plants). Tables B1 to B11 below, show the effects of selected compounds of the general formula (I) according to Table 1 on various harmful plants using an application rate corresponding to 1280 g/ha obtained by the experimental procedure mentioned above.”
as §2

Kochia scoparia (KCHSC) [14] = test: Herbicidal pre-emergence action, 1280 g/ha (Table A4); details: visual grading after ca. 3 weeks vs untreated controls
Source text: as §4

Stellaria media (STEME) [15] = test: Herbicidal pre-emergence action, 320 g/ha, STEME; details: visual grading after ca. 3 weeks
Source text: as §4, with “plants).” for “plants). Tables A1 to A11 below, show the effects of selected compounds of the general formula (I) according to Table 1 on various harmful plants and an application rate corresponding to 1280 g/ha obtained by the experimental procedure mentioned above.”
Tables C1 to C6 below, show the effects of selected compounds of the general formula (I) according to Table 1 on various harmful plants using an application rate corresponding to 320 g/ha obtained by the experimental procedure mentioned above.

Stellaria media (STEME) [16] = test: Herbicidal post-emergence action, 320 g/ha, STEME; details: visual grading after ca. 3 weeks
Source text: as §1, with “plants).” for “plants). Tables B1 to B11 below, show the effects of selected compounds of the general formula (I) according to Table 1 on various harmful plants using an application rate corresponding to 1280 g/ha obtained by the experimental procedure mentioned above.”
as §2

[17] = tested on: Abutilon theophrasti (ABUTH); test: Herbicidal pre-emergence action, 1280 g/ha (Table A1); details: visual grading after ca. 3 weeks vs untreated controls
Source text: as §4

[18] = tested on: Matricaria inodora (MATIN); test: Herbicidal pre-emergence action, 1280 g/ha (Table A6); details: visual grading after ca. 3 weeks vs untreated controls
Source text: as §4

[19] = tested on: Matricaria inodora (MATIN); test: Herbicidal post-emergence action, 320 g/ha, MATIN; details: visual grading after ca. 3 weeks
Source text: as §1, with “plants).” for “plants). Tables B1 to B11 below, show the effects of selected compounds of the general formula (I) according to Table 1 on various harmful plants using an application rate corresponding to 1280 g/ha obtained by the experimental procedure mentioned above.”
as §2

[20] = tested on: Amaranthus retroflexus (AMARE); test: Herbicidal pre-emergence action, 1280 g/ha (Table A11); details: visual grading after ca. 3 weeks vs untreated controls
Source text: as §4

Lolium rigidum (LOLRI) [21] = test: Herbicidal pre-emergence action, 320 g/ha (Table C2); details: visual grading after ca. 3 weeks vs untreated controls
Source text: as §4, with “Tables C1” for “Tables A1”, “to C6” for “to A11”, “plants using” for “plants and”, “to 320” for “to 1280”

Compound	herbicidal effect STEME (Stellaria media (STEME) [1]) [%]	herbicidal effect AMARE [3] [%]	herbicidal effect MATIN [4] [%]	herbicidal effect KCHSC (Kochia scoparia (KCHSC) [5]) [%]	herbicidal effect AMARE [6] [%]	herbicidal effect VERPE (Veronica persica (VERPE) [7]) [%]	herbicidal effect STEME (Stellaria media (STEME) [8]) [%]	herbicidal effect LOLRI (Lolium rigidum (LOLRI) [9]) [%]	herbicidal effect ABUTH [11] [%]	herbicidal effect KCHSC (Kochia scoparia (KCHSC) [13]) [%]	herbicidal effect STEME (Stellaria media (STEME) [16]) [%]	herbicidal effect MATIN [18] [%]	herbicidal effect AMARE [20] [%]	also measured
Cc1nn(C)c(=O)c(Oc2ccccc2C(F)(F)F)c1O [Example I-007, 5-hydroxy-2,6-dimethyl-4-[2-(trifluoromethyl)phenoxy]pyridazin-3-one]	100	90	90	100	90	90	100	90	–	–	–	–	–	herbicidal effect LOLRI (Lolium rigidum (LOLRI) [2]): 90%; herbicidal effect POAAN (Poa annua (POAAN)): 100%
Cc1ccccc1Oc1c(O)c(C)nn(C)c1=O [Example I-017]	–	90	–	100	90	90	–	–	90	–	–	–	–	herbicidal effect VERPE (Veronica persica (VERPE) [10]): 90%; herbicidal effect ABUTH [12]: 90%
Cc1nn(C)c(=O)c(Oc2ccc(Cl)cc2Cl)c1O [Example I-019, 4-(2,4-dichlorophenoxy)-5-hydroxy-2,6-dimethyl-pyridazin-3-one]	90	90	90	90	90	90	100	90	90	90	–	–	–	herbicidal effect ABUTH [12]: 90%
Cc1nn(C)c(=O)c(Oc2ccccc2F)c1O [Example I-021]	–	–	–	–	–	–	–	–	–	–	–	–	–	herbicidal effect POAAN (Poa annua (POAAN)): 90%
Cc1nn(C)c(=O)c(Oc2ccc(Cl)cc2Cl)c1OC(=O)C(C)(C)C [Example I-049]	–	–	90	90	100	90	100	–	90	90	–	–	–	herbicidal effect KCHSC (Kochia scoparia (KCHSC) [14]): 90%
CCOC(=O)Oc1c(C)nn(C)c(=O)c1Oc1cc(Cl)ccc1C1CC1 [Example I-070]	100	90	90	–	100	90	90	100	100	–	90	100	–	herbicidal effect STEME (Stellaria media (STEME) [15]): 90%; herbicidal effect LOLRI (Lolium rigidum (LOLRI) [2]): 100%; herbicidal effect ABUTH [17]: 100%; herbicidal effect ABUTH [12]: 100%
CCOC(=O)Oc1c(C)nn(C)c(=O)c1Oc1ccccc1OC(F)F [Example I-074]	100	–	90	90	100	90	90	90	100	90	–	–	–	herbicidal effect LOLRI (Lolium rigidum (LOLRI) [2]): 90%
Cc1nn(C)c(=O)c(Oc2cc(F)c(F)cc2Br)c1O [Example I-087]	–	90	100	100	100	90	–	90	100	90	–	–	–	herbicidal effect VERPE (Veronica persica (VERPE) [10]): 90%; herbicidal effect MATIN [19]: 90%
Cc1nn(C)c(=O)c(Oc2cc(F)c(F)cc2Br)c1OC(=O)C(C)C [Example I-094]	–	–	90	90	100	90	–	–	90	–	–	100	100	herbicidal effect MATIN [19]: 90%
Cc1nn(C)c(=O)c(Oc2cc(Cl)cc(Cl)c2Cl)c1O [Example I-096]	100	–	–	–	90	–	100	90	–	–	90	100	90	herbicidal effect LOLRI (Lolium rigidum (LOLRI) [21]): 90%; herbicidal effect STEME (Stellaria media (STEME) [15]): 100%
CCOC(=O)Oc1c(C)nn(C)c(=O)c1Oc1cc(Cl)cc(Cl)c1Cl [Example I-097]	90	–	–	–	90	–	100	100	–	–	90	–	100	herbicidal effect STEME (Stellaria media (STEME) [15]): 90%; herbicidal effect ABUTH [17]: 100%
CCOC(=O)Oc1c(C)nn(C)c(=O)c1Oc1cc(F)cc(F)c1Br [Example I-098]	90	–	90	90	100	90	100	–	90	90	90	100	100	–
